Test [1] can be described thus: Specific binding of 3H-labeled compound to membrane fraction prepared from rat spinal cord. The settings on record: 3H-labeled compound of Example 7, 37° C., 1 hour; relative to dorsal root ganglion. On the procedure:
A binding property of a ^3H-labeled cyclic amine derivative (I) to each of membrane fractions prepared from various tissues of a rat was evaluated, and thus, a tissue containing a molecular target of the cyclic amine derivative (I) was clarified.
As the cyclic amine derivative (I), the compound of Example 7 was used.
Male SD rats (manufactured by Charles River Laboratories Japan, Inc.) of 7 weeks old were used. Rats were anesthetized with isoflurane, and euthanized by exsanguination from the abdominal aorta using a syringe having an inner wall treated with a heparin sodium injection (manufactured by AY Pharmaceuticals Co., Ltd.). […]
A homogenate sample of each tissue thus collected was prepared, using a homogenizer, by adding a homogenize buffer (sucrose (1 M), Tris-HCl (0.5 M), and 1× protease inhibitor cocktail (manufactured by Sigma Aldrich), pH 7.6) to the collected tissue. […] The resultant supernatant was ultracentrifuged at 100,000×g at 4° C. for 60 minutes, and the thus obtained precipitate was suspended in Krebs-Ringer bicarbonate buffer (manufactured by Sigma Aldrich) to quantitatively determine the amount of protein using a BCA protein assay kit (manufactured by Thermo Fisher Scientific K.K.). […]

In test [2] the test system is F11 cells (rat dorsal root ganglion neuron cell line). The test can be described thus: Effect of decreasing intracellular actin filaments in F11 cells with oxaliplatin-induced axonal injury (phalloidin staining). The class given is cell-based. The settings on record: F-11 rat/mouse fusion cell line, F11, 120 h, compound 10 μM with oxaliplatin 15 μM, 5 days; compared to oxaliplatin alone treated group; average of five samples; read-out: Decreasing Rate of Intracellular Actin Filament (%). From the text: The effect of the cyclic amine derivative (I) or a pharmacologically acceptable salt thereof on the amount of intracellular actin filaments in F11 cells (rat dorsal root ganglion neuron cell line) was examined.
As test compounds, the compounds of Examples 1, 2, 3, 4, 5, 6, 7, 8, and 9 were used.
As compounds of comparative examples, 1-(4-(dimethylamino)piperidin-1-yl)-3-(1-ethyl-1H-imidazol-2-yl)-3-hydroxypropan-1-one (hereinafter, the compound of Comparative Example 1), 1-(4-(dimethylamino)piperidin-1-yl)-3-hydroxy-3-(1-(2,2,2-trifluoroethyl)-1H-imidazol-2-yl)propan-1-one (hereinafter, the compound of Comparative Example 2), 1-((R)-3-(dimethylamino)pyrrolidin-1-yl)-3-hydroxy-3-(1-methyl-1H-imidazol-2-yl)propan-1-one (hereinafter, the compound of Comparative Example 3), and 1-((R)-[…]-3-hydroxy-3-(1-methyl-1H-imidazol-2-yl)propan-1-one (hereinafter, the compound of Comparative Example 4) shown in Table 4 were used. The compounds of Comparative Examples 1, 2, 3, and 4 were synthesized in accordance with methods described in International Publication No. WO2016/136944.
For peeling the F11 cells off from a culture flask, 0.25% Trypsin/EDTA (manufactured by Thermo Fisher Scientific K.K.) was added to the cells, followed by incubation at room temperature for several minutes. Thereafter, 10% fetal bovine serum-containing DMEM medium (manufactured by Thermo Fisher Scientific K.K.) was added thereto for suspension, and the resultant centrifuged at 1,500 rpm for 1 minute. After removing the resultant centrifugal supernatant, 0.5% fetal bovine serum-containing DMEM medium was added thereto for suspending cells therein, and the resultant seeded in a poly-D-lysine-coated 96 well plate (manufactured by BD Biosciences) coated with laminin (2 μg/cm^2, manufactured by Sigma Aldrich) to be cultured at 37° C. under an environment of 5% CO2. Two hours after seeding the cells, N,N-dibutyladenosine 3′,5′-phosphate (final concentration 1 mM, manufactured by Sigma Aldrich) and recombinant rat GDNF (final concentration 50 ng/mL, manufactured by PeproTech) were added thereto to culture the cells at 37° C. under an environment of 5% CO2 for 7 days for differentiation.
Seven days after starting the culture, the medium was exchanged with 0.5% fetal bovine serum-containing DMEM medium containing oxaliplatin (final concentration 15 μM), and the resultant cultured for 5 days to induce axonal injury. Each of the compounds of Examples and Comparative Examples was caused to be contained in the medium (final concentration 10 μM) for treatment in the same manner as oxaliplatin.
Five days after treatment with oxaliplatin and each of the compounds, the resultant cells were washed with PBS(−) three times, a 4% paraformaldehyde-phosphate buffer (manufactured by Wako Pure Chemical Industries Ltd.) was added thereto, and the resultant allowed to stand still at room temperature for 10 minutes to fix the cells. Acti-stain 670 phalloidin (manufactured by Cytoskeleton Inc.) was added thereto, and the resultant incubated at room temperature for 30 minutes to stain actin filaments. An image of the cells was acquired using IN Cell Analyzer 2200 (manufactured by GE Healthcare), and the image analyzed using IN Cell Investigator Developer Toolbox. The amount of intracellular actin filaments was indicated by the amount of fluorescence (density) of fluorescent-labeled phalloidin binding to the actin filaments.
In a group treated with oxaliplatin alone (hereinafter, the oxaliplatin alone treated group), the amount of intracellular actin filaments increased by 5% compared to that in a group not treated with oxaliplatin. […] A decreasing rate of intracellular actin filaments, caused by each compound compared to the amount of intracellular actin filaments of the oxaliplatin alone treated group was calculated. […]

Each structure is given as a SMILES string. Bounds are passed on as bounds.

On to `CN(C)C1CCN(C(=O)C[C@H](O)c2nccn2C)CC1` [Example 7, (S)-1-(4-(dimethylamino)piperidin-1-yl)-3-hydroxy-3-(1-methyl-1H-imidazol-2-yl)propan-1-one], for which the “specific binding to the membrane fraction prepared from the spinal cord, as % of the specific binding to the dorsal root ganglion membrane fraction” value in test [1] came out at 23%. The inhibition at 10 µM in test [2] is no less than 5%.

The values above are taken from patent US12545668B2, “Cyclic amine derivative as agent for promoting advillin function, and novel cyclic amine derivative and pharmaceutical use thereof” (Toray Industries, Inc., priority 2018, dated 2026).
